Laboratory results: patent publication US20200188394A1, “TREATMENT OF LIVER DISEASE” (UNIVERSITY OF NEWCASTLE UPON TYNE, priority 2016, published 2020)
Entries after “also recorded” stand apart in the source; their conditions may differ.

Columns and labels:
Format in all cases: cell-based, rat
hepatocytes [1] = assay: Glucose phosphorylation in hepatocytes ([2-3H]glucose to 3H2O); conditions: 2 hours, 10 nM insulin, 5, 15 or 25 mM glucose, 10 μM GKA vs glucose alone (FIG. 2A)
Description: (§1) Hepatocytes were isolated from male Wistar rats (body wt 200-300 g) (Envigo, Bicester, UK). Procedures conformed to Home Office Regulations. The hepatocytes were suspended in Minimum Essential Medium (MEM) 21430 (Life Technologies, GIBCO BRL, Grand Island, N.Y.) with 5% (v/v) calf serum (Life Technologies, GIBCO BRL, Grand Island, N.Y.) and seeded on gelatin-coated plates. After cell attachment (˜4 hours) the medium was replaced by serum-free medium containing 5 mM glucose, 10 nM dexamethasone, 1 nM insulin and experiments were started after ˜20 hours culture by challenge with media containing 5 mM glucose, 15 mM glucose or 25 mM glucose and other additions as indicated.

hepatocytes [2] = assay: Fructose 2,6-bisphosphate determination in hepatocytes; conditions: 4 hours, GKA with 15 mM glucose vs 5 mM and 15 mM glucose alone, without or with 10 nM insulin (FIG. 3A), listed as GKA
Description: as §1
(§2) Incubations for mRNA analysis and fructose 2,6-bisphosphate were for 4 hrs in MEM with 5, 15, or 25 mM glucose with or without 10 nM insulin and with or without 2 mM fructose. In samples including GKA, 10 μM GKA RO 28-1675 was added.

Gck mRNA = assay: Relative Gck mRNA expression in hepatocytes (real-time RT-PCR); conditions: for relative expression of Gck mRNA: 4 hours, listed as GKA; for Gck mRNA relative expression: 5 or 10 mM DG with 5 mM glucose (FIG. 6D)
Description: as §1, §2
(§3) Incubations with 2-deoxyglucose (DG) where carried out as described previously but with 5 or 10 mM DG with 5 mM glucose (5G) and with or without 2 μM S4048.
(§4) RNA was extracted using TRIzol (Invitrogen) and cDNA was synthesized from 1 μg of RNA with MMLV (Promega). Real-time RT-PCR was performed in a total volume of 10 μl containing 50 ng of reverse transcribed RNA and 5 ng of forward and reverse primers using a Sybr-Green protocol (Promega) in a Roche Capillary Light Cycler. Relative mRNA levels (vs control) were calculated by the delta cycle threshold method.

G6pc mRNA = assay: Relative G6pc mRNA expression in hepatocytes (real-time RT-PCR); conditions: for relative expression of G6pc mRNA: 4 hours; for G6pc mRNA relative expression: 5 or 10 mM DG with 5 mM glucose (FIG. 6C)
Description: as §1, §2, §3, §4

hepatocytes [3] = assay: Cell G6P / hexose 6-phosphate (H6P) determination in hepatocytes; conditions: for glucose-6-phosphate concentration / H6P concentration: hepatocytes; for glucose-6-phosphate concentration: 2 hours, 10 nM insulin, 5, 15 or 25 mM glucose, 10 μM GKA vs glucose alone (FIG. 2B); for H6P concentration: 5 or 10 mM DG with 5 mM glucose (FIG. 6B)
Description: as §1
Hepatocytes were incubated for 1 or 2 hours in MEM containing 10 nM insulin and 5, 15, or 25 mM glucose with or without 10μM GKA 3-cyclopentyl-2-(4-methanesulfonylphenyl)-N-thiazol-2-yl-propionamide (RO 28-1675) (Axon MedChem BV, Groningen) for determination of glucose phosphorylation (nmol/2 h per mg) and cell G6P (nmol/mg protein).
as §3
Medium containing the cultured hepatocytes was drained from cell culture plates and the plates were snap-frozen in liquid nitrogen and stored at −80° C. For H6P determination, cells were extracted in 2.5% sulphosalicylic acid for deproteinization (10,000g, 10 min) and the supernatants were then neutralized with KOH/KH^2PO4 (3 M/1 M) and metabolites assayed on the neutralized deproteinized extracts. For fructose 2,6-P2, cells were extracted in 0.15 M NaOH.
For G6P and H6P determination the assay procedure involved coupling of the dehydrogenation of G6P by glucose-6-phosphate dehydrogenase to the […] by the reduction of the molecule resazurin to resorufin by NADP measured by the […]. Standards of G6P (2 to 20 μM) were prepared in 2.5% sulphosalicylic acid and neutralized with KOH/KH2PO4 (3 M/1 M) as in samples for metabolite determination. Standards and samples (20 μl) were then assayed in a final reaction volume of 200 μI containing 50 mM triethanolamine (TEA, pH 7.6), 1.0 mM MgCl2, 100 μM NADP+, 10 μM resazurin, 0.1 U/ml G6PD, and 0.2 U/ml diaphorase. The mixtures were then incubated for 30 min at room temperature. Fluorescence at 590 nm was measured using excitation at 530 nm using a plate reader (M5E Molecular devices). Background fluorescence was corrected by subtracting the value of the no-G6P control from all sample readings and sample values were read off the linear standard curve determined from the G6P standards.
Metabolites are expressed as nmol/mg protein except for fructose 2,6-P2 which is expressed as pmol/mg of total cell protein determined by a Lowry assay.

Pklr mRNA = assay: Relative Pklr mRNA expression in hepatocytes (real-time RT-PCR); conditions: 4 hours, listed as GKA
Description: as §1, §2, §3
RNA was extracted using TRIzol (Invitrogen) and cDNA was synthesized from 1 μg of RNA with MMLV (Promega). […] Relative mRNA levels (vs control) were calculated by the delta cycle threshold method.

Row | Compound | glucose phosphorylation (hepatocytes [1]) | glucose phosphorylation (hepatocytes [1]; listed as GKA) | fructose 2,6-bisphosphate concentration (hepatocytes [2]) | relative expression of Gck mRNA (Gck mRNA; 10 nM insulin, 5, 15 or 25 mM glucose, -/+ 10 μM GKA (FIG. 4A)) | relative expression of Gck mRNA (Gck mRNA; GKA with 15 mM glucose vs 5 mM and 15 mM glucose alone (FIG. 3D)) | relative expression of G6pc mRNA (G6pc mRNA; 10 nM insulin, 5, 15 or 25 mM glucose, -/+ 10 μM GKA (FIG. 4C), listed as GKA) | relative expression of G6pc mRNA (G6pc mRNA; GKA with 15 mM glucose vs 5 mM and 15 mM glucose alone (FIG. 3B)) | fractional increase in G6P compared with fractional increase in metabolic flux (hepatocytes [3]; basal (5 mM) and moderate (15 mM) glucose, 10 μM GKA) | glucose-6-phosphate concentration (hepatocytes [3]) | glucose-6-phosphate concentration (hepatocytes [3]; listed as GKA) | relative expression of Pklr mRNA (Pklr mRNA; 10 nM insulin, 5, 15 or 25 mM glucose, -/+ 10 μM GKA (FIG. 4B)) | relative expression of Pklr mRNA (Pklr mRNA; GKA with 15 mM glucose vs 5 mM and 15 mM glucose alone (FIG. 3C)) | Gck mRNA relative expression (Gck mRNA) | Gck mRNA relative expression (Gck mRNA; listed as 2DG) | G6pc mRNA relative expression (G6pc mRNA) | G6pc mRNA relative expression (G6pc mRNA; listed as 2DG) | H6P concentration (hepatocytes [3]) | H6P concentration (hepatocytes [3]; listed as 2DG)
1 | CS(=O)(=O)c1ccc(C(CC2CCCC2)C(=O)Nc2nccs2)cc1 (stereo not drawn) [RO 28-1675, 3-cyclopentyl-2-(4-methanesulfonylphenyl)-N-thiazol-2-yl-propionamide] | increased phosphorylation more than glucose alone | increases the rate of phosphorylation of glucose | increase in F-2,6-P2; also recorded: increases F-2,6-P2 more than 5 mM glucose and 15 mM glucose | represses the relative expression of Gck; also recorded: able to reduce Gck expression; also recorded: reduced the relative expression of Gck mRNA at all glucose concentrations | decrease in relative expression of Gck mRNA; also recorded: decreased relative expression of Gck mRNA | induces the expression of both G6pc and Pklr mRNA; also recorded: increased relative expression of Pklr mRNA and G6pc mRNA at all glucose concentrations | increase in relative expression of both Pklr and G6pc mRNA | greater | increased the concentration of G6P more than glucose alone | increases the cell concentration of G6P at all glucose concentrations | induces the expression of both G6pc and Pklr mRNA; also recorded: increased relative expression of Pklr mRNA | increase in relative expression of both Pklr and G6pc mRNA; also recorded: increased relative expression of Pklr mRNA | – | – | – | – | – | –
2 | O=CC[C@@H](O)[C@H](O)[C@H](O)CO [DG, 2-deoxyglucose] | – | – | – | – | – | – | – | – | – | – | – | – | repression of Gck mRNA | decrease in Gck mRNA expression | does not cause induction of expression of G6pc mRNA | does not affect G6pc mRNA relative expression | causes elevation in the cell hexose 6-phosphate (H6P) content | H6P concentration increases with increasing 2DG
